Test [1] has as its target isolated recombinant JAK2 kinase domain (Homo sapiens (Human), UniProt O60674). Kind of test: JAK2 enzyme assay (Caliper LabChip, Ki). Type of test: biochemical. A digest of the protocol:
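Caliper LabChip readout of phosphorylated product as a fraction of total substrate, a fluorescently N-terminally labelled JAK3-derived peptide. Isolated human JAK kinase domains were incubated 30 min at 22 °C before EDTA quench (50 mM final).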

Test [2] has as its system JAK1-dependent STAT6 phosphorylation downstream of IL-13 stimulation in BEAS-2B human bronchial epithelial cells. As to the kind of experiment: JAK1 pathway assay in BEAS-2B cells (IL-13-pSTAT6, MSD). The settings on record: BEAS-2B cells, IL-13 stimulation, read-out: IL-13 p-STAT6 BEAS-2B IC50. The class given is cell-based. As for the experimental part: JAK1 Pathway Assay in Cell Lines was carried out as follows:
Inhibitor potency (EC50) was determined in cell-based assays designed to measure JAK1 dependent STAT phosphorylation.
In one assay approach, TF-1 human erythroleukemia cells obtained from the American Type Culture Collection (ATCC; Manassas, Va.) were used to measure JAK1-dependent STAT6 phosphorylation downstream of IL-13 stimulation. Prior to use in the assays, TF-1 cells were starved of GM-CSF overnight in OptiMEM medium (Life Technologies, Grand Island, N.Y.) supplemented with 0.5% charcoal/dextran stripped fetal bovine serum (FBS), 0.1 mM non-essential amino acids (NEAA), and 1 mM sodium pyruvate. The assays were run in 384-well plates in serum-free OptiMEM medium using 300,000 cells per well. In a second assay approach, BEAS-2B human bronchial epithelial cells obtained from ATCC were plated at 100,000 cells per well of a 96-well plate one day prior to the experiment. The BEAS-2B assay was run in complete growth medium (bronchial epithelial basal medium plus bulletkit; Lonza; Basel, Switzerland).
Test compounds were serially diluted 1:2 in DMSO and then diluted 1:50 in medium just before use. Diluted compounds were added to the cells, for a final DMSO concentration of 0.2%, and incubated for 30 min (for the TF-1 assay) or 1 hr (for the BEAS-2B assay) at 37° C. Then, cells were stimulated with human recombinant cytokine at their respective EC90 concentrations, as previously determined for each individual lot. Cells were stimulated with IL-13 (R&D Systems, Minneapolis, Minn.) for 15 min at 37° C. The TF-1 cell reactions were stopped by the direct addition of 10× lysis buffer (Cell Signaling Technologies, Danvers, Mass.), whereas the BEAS-2B cell incubations were halted by the removal of medium and addition of 1× lysis buffer. The resultant samples were frozen in the plates at −80° C. Compound mediated inhibition of STATE phosphorylation was measured in the cell lysates using MesoScale Discovery (MSD) technology (Gaithersburg, Md.).

Test [3] has as its target isolated recombinant JAK1 kinase domain (Homo sapiens (Human), UniProt P23458). Kind of test: JAK1 enzyme assay (Caliper LabChip, Ki). The class given is biochemical. In a few lines:
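Ki derived via Morrison tight-binding model, ATP-competitive correction applied. Read-out: product/total ratio of a 5-carboxyfluorescein-tagged JAK3 peptide separated on Caliper LabChip after phosphorylation by isolated human JAK1 kinase domain (22 °C, 30 min; EDTA quench, 50 mM final).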

The values that follow come from patent publication US11731943B2, “Therapeutic compounds, compositions and methods of use thereof” (priority 2016, dated 2023).

Where two headings read alike, the source gives them in different places.

isolated recombinant JAK2 kinase domain, sequence (O60674 849-1124): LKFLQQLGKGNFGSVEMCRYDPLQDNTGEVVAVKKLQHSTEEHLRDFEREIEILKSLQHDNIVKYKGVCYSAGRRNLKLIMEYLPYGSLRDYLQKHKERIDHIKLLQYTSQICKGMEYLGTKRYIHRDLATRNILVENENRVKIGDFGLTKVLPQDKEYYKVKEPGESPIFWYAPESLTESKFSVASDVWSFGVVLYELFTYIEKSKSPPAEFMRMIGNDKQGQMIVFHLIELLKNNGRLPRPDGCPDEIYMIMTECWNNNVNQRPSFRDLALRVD
isolated recombinant JAK1 kinase domain, sequence (P23458 875-1153): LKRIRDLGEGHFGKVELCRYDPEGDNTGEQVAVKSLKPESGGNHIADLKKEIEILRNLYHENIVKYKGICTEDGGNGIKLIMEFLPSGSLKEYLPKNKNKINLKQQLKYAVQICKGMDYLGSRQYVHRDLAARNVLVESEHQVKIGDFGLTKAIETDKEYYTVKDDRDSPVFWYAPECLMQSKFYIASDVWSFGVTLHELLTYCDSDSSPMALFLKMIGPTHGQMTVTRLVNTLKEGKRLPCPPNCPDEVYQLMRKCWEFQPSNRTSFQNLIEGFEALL

The term Ki denotes a dissociation constant, usually derived from enzyme kinetics or from competition with a known ligand. The IC50 is the concentration that inhibits the measured activity by half. Regarding `N#CCC1(n2cc(C(N)=O)c(NC(=O)C3CC3)n2)CCN(Cc2ccc(C3=CCCC3)cc2)CC1F` (stereo not drawn) [Example 261, 1-[4-(cyanomethyl)-1-[[4-(cyclopenten-1-yl)phenyl]methyl]-3-fluoro-4-piperidyl]-3-(cyclopropanecarbonylamino) pyrazole-4-carboxamide], the Ki worked out at 0.82 nM in test [1] and 0.56 nM in test [3] (read-out: JAK1 Ki). For the same molecule, the IC50 in test [2] (Homo sapiens, BEAS-2B) is 21 nM.
`COC(=O)Nc1nn(C2(CC#N)CCN(Cc3ccc(-c4csc(C)n4)cc3)CC2F)cc1C(N)=O` (stereo not drawn) [Example 249, methyl N-[4-carbamoyl-1-[4-(cyanomethyl)-3-fluoro-1-[[4-(2-methylthiazol-4-yl)phenyl]methyl]-4-piperidyl]pyrazol-3-yl]carbamate]: the Ki in test [1] amounted to 0.56 nM; in test [3] (read-out: JAK1 Ki), 0.52 nM. Moreover, in test [2] (Homo sapiens, BEAS-2B), the IC50 came out at 26 nM.
On to `C#Cc1ccc(CN2CCC(CC#N)(n3cc(C(N)=O)c(NC(=O)OC)n3)C(F)C2)c(Cl)c1` (stereo not drawn) [Example 289, methyl N-[4-carbamoyl-1-[1-[(2-chloro-4-ethynyl-phenyl)methyl]-4-(cyanomethyl)-3-fluoro-4-piperidyl]pyrazol-3-yl]carbamate], for which the values for the Ki in test [1] and in test [3] (read-out: JAK1 Ki) were 0.55 nM and 0.26 nM, respectively. Also, the IC50 in test [2] (Homo sapiens, BEAS-2B) was determined as 15 nM.
In the case of `COC(=O)Nc1nn(C2(CC#N)CCC(Nc3ccc(-c4ccco4)cc3)CC2)cc1C(N)=O` (stereo not drawn) [Example 266, methyl N-[4-carbamoyl-1-[1-(cyanomethyl)-4-[4-(2-furyl)anilino]cyclohexyl]pyrazol-3-yl]carbamate], the Ki in test [1] was determined as 5 nM; in test [3] (read-out: JAK1 Ki), 0.77 nM. The IC50 in test [2] (Homo sapiens, BEAS-2B) is 57 nM.
Consider `N#CCC1(n2cc(C(N)=O)c(NC(=O)C3CC3)n2)CCN(Cc2ccc(-n3cccn3)cc2)CC1` [Example 87], for which the Ki in test [1] came to 25.1 nM; in test [3] (read-out: JAK1 Ki) it was 2.2 nM. Besides, the IC50 in test [2] (Homo sapiens, BEAS-2B) was found to be 350 nM.
Turning to `COC(=O)Nc1nn(C2(CC#N)CCN(CC3CCC(c4ccccc4)CC3)CC2F)cc1C(N)=O` (stereo not drawn) [Example 235, methyl N-[4-carbamoyl-1-[4-(cyanomethyl)-3-fluoro-1-[(4-phenylcyclohexyl)methyl]-4-piperidyl]pyrazol-3-yl]carbamate], the inhibition constant Ki in test [1] is 0.67 nM; in test [3] (read-out: JAK1 Ki) it was 0.32 nM. For the same molecule, the IC50 in test [2] (Homo sapiens, BEAS-2B) turned out to be 26 nM.
`CC#Cc1ccc(CN2CCC(CC#N)(n3cc(C(N)=O)c(NC(=O)OC)n3)C(F)C2)cc1` (stereo not drawn) [Example 298, Methyl (4-carbamoyl-1-(4-(cyanomethyl)-3-fluoro-1-(4-(prop-1-yn-1-yl)benzyl)piperidin-4-yl)-1H-pyrazol-3-yl)carbamate]: the Ki in test [1] is 0.58 nM; in test [3] (read-out: JAK1 Ki) it was 0.6 nM. Further, in test [2] (Homo sapiens, BEAS-2B), the IC50 came out at 29 nM.
On to `C=C(C)c1ccc(CN2CCC(CC#N)(n3cc(C(N)=O)c(NC(=O)C4CC4)n3)C(F)C2)cc1` (stereo not drawn) [Example 259, 1-[4-(cyanomethyl)-3-fluoro-1-[(4-isopropenylphenyl)methyl]-4-piperidyl]-3-(cyclopropanecarbonylamino) pyrazole-4-carboxamide], for which the Ki in test [1] amounted to 1.8 nM; in test [3] (read-out: JAK1 Ki), 0.84 nM. Moreover, the concentration for half-maximal inhibition (IC50) in test [2] (Homo sapiens, BEAS-2B) was 50 nM.
For `N#CCC1(n2cc(C(N)=O)c(NC(=O)C3CC3C#N)n2)CCN(CC2CCC(c3ccccc3)CC2)CC1F` (stereo not drawn) [Example 231, 3-[(2-cyanocyclopropanecarbonyl)amino]-1-[4-(cyanomethyl)-3-fluoro-1-[(4-phenylcyclohexyl)methyl]-4-piperidyl]pyrazole-4-carboxamide], the Ki in test [1] came to 8.3 nM; in test [3] (read-out: JAK1 Ki), 0.36 nM. In addition, in test [2], the IC50 amounted to 19 nM.
Take `C=Cc1ccc(CN2CCC(CC#N)(n3cc(C(N)=O)c(NC(=O)OC)n3)C(F)C2)cc1O` (stereo not drawn) [Example 284, methyl N-[4-carbamoyl-1-[4-(cyanomethyl)-3-fluoro-1-[(3-hydroxy-4-vinyl-phenyl)methyl]-4-piperidyl]pyrazol-3-yl]carbamate]: the Ki in test [1] is 0.5 nM; in test [3] (read-out: JAK1 Ki) it was 0.3 nM. In addition, the IC50 in test [2] (Homo sapiens, BEAS-2B) worked out at 48 nM.
As to `CCc1ccc(-c2ccc(CN3CCC(CC#N)(n4cc(C(N)=O)c(NC(=O)C5CC5)n4)CC3)cc2O)cc1` [Example 189, 1-[4-(cyanomethyl)-1-[[4-(4-ethylphenyl)-3-hydroxy-phenyl]methyl]-4-piperidyl]-3-(cyclopropanecarbonylamino) pyrazole-4-carboxamide], the Ki is 1.3 nM in test [1] and 0.33 nM in test [3] (read-out: JAK1 Ki). Besides, the IC50 in test [2] (Homo sapiens, BEAS-2B) worked out at 38 nM.
For `CCc1cccc(-c2ccc(CN3CCC(CC#N)(n4cc(C(N)=O)c(NC(=O)C5CC5)n4)CC3)cc2)c1` [Example 154, 1-[4-(cyanomethyl)-1-[[4-(3-ethylphenyl)phenyl]methyl]-4-piperidyl]-3-(cyclopropanecarbonylamino) pyrazole-4-carboxamide], the Ki in test [1] was 8.7 nM; in test [3] (read-out: JAK1 Ki) it was 1.5 nM. Further, the IC50 in test [2] (Homo sapiens, BEAS-2B) came out at 116 nM.
Turning to `COC(=O)Nc1nn(C2(CC#N)CCN(Cc3ccc(-n4nccn4)cc3)CC2F)cc1C(N)=O` (stereo not drawn) [Example 200, methyl N-[4-carbamoyl-1-[4-(cyanomethyl)-3-fluoro-1-[[4-(triazol-2-yl)phenyl]methyl]-4-piperidyl]pyrazol-3-yl]carbamate], the Ki in test [1] worked out at 0.96 nM; in test [3] (read-out: JAK1 Ki), 0.51 nM. In test [2] (Homo sapiens, BEAS-2B), the IC50 came out at 39 nM.
For `N#CCC1(n2cc(C(N)=O)c(NC(=O)C3CC3C#N)n2)CCN(CC2CCC(c3ccccc3)CC2)CC1F` (stereo not drawn) [Example 230, 3-[(2-cyanocyclopropanecarbonyl)amino]-1-[4-(cyanomethyl)-3-fluoro-1-[(4-phenylcyclohexyl)methyl]-4-piperidyl]pyrazole-4-carboxamide], the Ki in test [1] was determined as 1.8 nM; in test [3] (read-out: JAK1 Ki), 0.51 nM. In test [2], the IC50 turned out to be 60 nM.
In the case of `N#CCC1(n2cc(C(N)=O)c(NC(=O)C3CC3)n2)CCN(Cc2ccc(-c3ccccc3)c(F)c2)CC1` [Example 140, 1-[4-(cyanomethyl)-1-[(3-fluoro-4-phenyl-phenyl)methyl]-4-piperidyl]-3-(cyclopropanecarbonylamino) pyrazole-4-carboxamide], the results for the Ki in test [1] and in test [3] (read-out: JAK1 Ki) were 4.4 nM and 0.6 nM, respectively. The concentration for half-maximal inhibition (IC50) in test [2] (Homo sapiens, BEAS-2B) came to 49 nM.
Regarding `COC(=O)Nc1nn(C2(CC#N)CCN(Cc3ccc(C4=CCCCC4)nc3F)CC2F)cc1C(N)=O` (stereo not drawn) [Example 264, methyl N-[4-carbamoyl-1-[4-(cyanomethyl)-1-[[6-(cyclohexen-1-yl)-2-fluoro-3-pyridyl]methyl]-3-fluoro-4-piperidyl]pyrazol-3-yl]carbamate], the results for the Ki in test [1] and in test [3] (read-out: JAK1 Ki) were 1.4 nM and 0.79 nM, respectively. In addition, the IC50 in test [2] (Homo sapiens, BEAS-2B) is 88 nM.
Consider `N#CC[C@]1(n2cc(C(N)=O)c(NC(=O)C3CC3)n2)CC[C@H](N2CC(C(F)(F)F)C2)CC1` (single isomer, unassigned) [Example 8], for which the inhibition constant (Ki) is 11 nM in test [1] and 1.7 nM in test [3] (read-out: JAK1 Ki). In test [2] (Homo sapiens, BEAS-2B), the IC50 came out at 194 nM.
As for `N#CC[C@]1(n2cc(C(N)=O)c(NC(=O)C3CC3)n2)CC[C@@H](NCC(F)(F)F)CC1` (single isomer, unassigned) [Example 1], the Ki in test [1] was 252 nM; in test [3] it was over 562 nM. Moreover, in test [2] (Homo sapiens, BEAS-2B), the IC50 was over 1000 nM.
Consider `CCn1ccc(-c2ccc(CN3CCC(CC#N)(n4cc(C(N)=O)c(NC(=O)OC)n4)C(F)C3)c(F)c2)n1` (stereo not drawn) [Example 241, methyl N-[4-carbamoyl-1-[4-(cyanomethyl)-1-[[4-(1-ethylpyrazol-3-yl)-2-fluoro-phenyl]methyl]-3-fluoro-4-piperidyl]pyrazol-3-yl]carbamate], for which the figures for the Ki in test [1] and in test [3] (read-out: JAK1 Ki) were 0.51 nM and 0.54 nM, respectively. In test [2] (Homo sapiens, BEAS-2B), the IC50 worked out at 29 nM.
For `COC(=O)Nc1nn(C2(CC#N)CCN(Cc3ccc(-c4ccccc4)nc3F)CC2)cc1C(N)=O` [Example 198, methyl N-[4-carbamoyl-1-[4-(cyanomethyl)-1-[(2-fluoro-6-phenyl-3-pyridyl)methyl]-4-piperidyl]pyrazol-3-yl]carbamate] the same measures were 3.8 nM, 1.2 nM and 74 nM.
